Measured values taken from patent US4340672A, “Enzymatic synthesis of β-lactam antibacterials” (Shionogi & Co., Ltd., priority 1979, dated 1982).
≈ marks a conversion by molar mass, not a printed value.

Assays:
[1] = tested on: A. fragerum M-2183-1 acylase; test: Selectivity of the acylases; conditions: ester (I) 45 mg, amine (II) 9 mg, 37° C., 3 hours 45 minutes; TLC and paper-disc assay with Bacillus subtilis PCI-219
[2] = tested on: A. globiformis M-345-2 acylase; test: Selectivity of the acylases; conditions: ester (I) 45 mg, amine (II) 9 mg, 37° C., 3 hours 45 minutes; TLC and paper-disc assay with Bacillus subtilis PCI-219
[3] = tested on: B. Circulans M-1123-5 acylase; test: Selectivity of the acylases; conditions: ester (I) 45 mg, amine (II) 9 mg, 37° C., 3 hours 45 minutes; TLC and paper-disc assay with Bacillus subtilis PCI-219
Solubility in water = assay type: physicochemical; conditions: read-out: concentration that can dissolve in water
[4] = tested on: acylase of Xanthomonas axonopodis M-621-1 on Sepharose 4B; test: Cephalexin production with immobilized enzyme of Xanthomonas axonopodis M-621-1; assay type: biochemical; conditions: ester 45 mg, 7-aminodeacetoxycephalosporanic acid 3 mg, 37° C., 3.5 hours
[5] = tested on: acylase of Micrococcus roseus M-1054-1 (broth); test: Cephalothin production with broth of Micrococcus roseus; assay type: biochemical; conditions: 3.5 hours at 37° C.; paper disc assay against Bacillus subtilis PCI-219
Experimental: The broth is adjusted to pH 7.0. The broth (4.5 ml) is added to a solution of 7-ACA (3%) and (i) 2-thienylacetic acid glycerin ester, (ii) 2-thienylacetic acid tetraethyleneglycol ester or (iii) 2-thienylacetic acid octaethyleneglycol ester in 0.2 M-phosphate buffer (0.5 ml) to react for 3.5 hours at 37° C. The reaction mixture is centrifuged to remove cells and the supernatant is assayed by paper disc assay method against Bacillus subtilis PCI-219 to the following values of produced cephalothin.

[6] = tested on: immobilized enzyme (acylase) of Bacillus circulans M-1123-5 on Sepharose 4B; test: Reactivity of TA esters by batch process; assay type: biochemical; conditions: 7-ACA to CET, 7-ACA 30 mg in 10 ml, pH 7.0, 37° C., 3 hours
Experimental: To a solution of 7-ACA (30 mg) and TA-esters (given amount) in M/10-phosphate buffer (pH 7.0) (10 ml) is added an immobilized enzyme (0.9 g) on Sepharose 4B, and the mixture is stirred at 37° C. for 3 hours. Concentration of CET in the reaction mixture is estimated by assaying antibacterial activity against Bacillus subtilis PCI-219 and conversion rate from 7-ACA to CET is calculated.

[7] = tested on: immobilized enzyme (acylase) of Bacillus circulans M-1123-5; test: Reactivity of TA esters by column method; assay type: biochemical; conditions: 7-ACA 5 mg/ml, 37° C., 25 ml/hr
Experimental: Concentration of CET in the eluate is determined by assaying antibacterial activity against Bacillus subtilis PCI-219 to estimate the yield on Table 3 in the laminar flow state. (Immobilization of purified enzyme)

[8] = tested on: immobilized enzyme from Arthrobacter globiformis M-345-2; test: Acylating capacity of immobilized enzyme from Arthrobacter globiformis M-345-2; assay type: biochemical
[9] = tested on: purified acylase of Bacillus circulans M-1123-5 immobilized on agar gel; test: Acylating capacity of immobilized pure enzyme; assay type: biochemical
[10] = tested on: acylase of Micrococcus luteus M-331-1 (dried cells); test: CET production with dried cells of Micrococcus luteus M-331-1; assay type: biochemical; conditions: dried cells 26 mg, 3 hours, 37° C., pH 7.0
Experimental: The broth is added into an aqueous medium (100 volumes) of the same composition as above, and incubated for 3 days at 28° C.
The broth is neutralized with hydrochloric acid to pH 7, centrifuged to collect the cells, washed with water and dried by washing with acetone to give 1.302 g of dry cells.
The dried cells (26 mg) are suspended in water (1.5 ml), diluted with a solution of 7-ACA (4 mg/ml) and TA-tetraester (20 mg/ml) in M/5-phosphate buffer (pH 7.0) (0.5 ml) and shaken for 3 hours at 37° C. to produce CET at a conversion rate of about 30%. (Immobilized cell entrapted in acrylamide gel)

[11] = tested on: acylase of Micrococcus luteus M-331-1 (immobilized cells); test: CET production with immobilized cells in acrylamide gel; assay type: biochemical; conditions: 7-ACA 1 mg/ml
Experimental: In a solution of acrylamide monomer (750 mg) and N,N'-methylenebisacrylamide (40 mg) in M/20-phosphate buffer (pH 7.0) (4 ml) are suspended said dry cells (1 g). To this solution is added 5% 3-dimethylaminopropionitrile (0.5 ml) and aqueous 1% potassium persulfate (0.5 ml) and the mixture is allowed to stand at 25° C. for 30 minutes. Produced gel is crushed with blender and produced particles over 100 mesh are collected, filled in a 10 mm .phi. tube, and washed with M/20-phosphate buffer (pH 7.0) to give a column (10.2 ml) of immobilized cells.

[12] = tested on: acylase of Bacillus circulans M-1123-5 absorbed on Celite 560; test: Acylating capacity of absorbed enzyme on Celite 560; assay type: biochemical
[13] = TA-tetraester 12.5 mg/ml, pH 7.0
[14] = TA-tetraester 18.8 mg/ml, pH 7.0

COCCOCCOCCOCCOCCOC(=O)Cn1cnnn1
product detected and determined, A. fragerum M-2183-1 [1]: 54.9 | product detected and determined, A. globiformis M-345-2 [2]: 43.7 | product detected and determined, B. Circulans M-1123-5 [3]: 55.7

COCCOCCOC(=O)C(N)c1ccccc1 (stereo not shown)
product detected and determined, A. globiformis M-345-2 [2]: 10.6 | product detected and determined, B. Circulans M-1123-5 [3]: 29.6

COC(=O)Cc1cccs1 [2-thienylacetic acid methyl ester]
solubility (Solubility in water): 10000 µg/mL (≈ 64 mM)

COCCOCCOC(=O)[C@H](N)c1ccccc1 [D-phenylglycin diethyleneglycol ester methyl ether]
conversion rate to cephalexin [4]: 26.3%

O=C(Cc1cccs1)OCC(O)CO (stereo not shown) [TA-glycerin ester, 2-thienylacetic acid glycerin ester]
produced cephalothin [5]: 34 µg/mL | Conversion rate (%) [6]: 73.7% | 7-ACA→CET Conversion rate (%) ([7]; carrier Sepharose 4B): 82.0%

COCCOCCOCCOCCOCCOCCOCCOCCOC(=O)Cc1cccs1 [TA-octaester methyl ether]
Conversion rate ([8]; 7-ACA 1 mg/ml, TA-ester 60, Agar gel): 80.5% | Conversion rate ([8]; 7-ACA 1 mg/ml, TA-ester 114, Agar gel): 76.5% | 7-ACA→CET Conversion rate (%) ([9]; Elute 39 ml, 7-ACA 10 mg/ml, ester 142.2 mg/ml, 16 ml/hr): 84.8% | 7-ACA→CET Conversion rate (%) ([9]; Elute 173 ml): 85.2% | 7-ACA→CET Conversion rate (%) ([9]; Elute 306 ml): 85.3% | 7-ACA→CET Conversion rate (%) ([9]; Elute 405 ml): 90.4% | 7-ACA→CET Conversion rate (%) ([9]; Elute 731 ml): 85.7% | 7-ACA→CET Conversion rate (%) ([9]; Elute 782 ml): 86.3% | 7-ACA→CET Conversion rate (%) ([9]; Elute 917 ml): 88.5% | 7-ACA→CET Conversion rate (%) ([9]; Elute 1089 ml): 86.9% | 7-ACA→CET Conversion rate (%) ([9]; Elute 1156 ml): 86.6% | 7-ACA→CET Conversion rate (%) ([9]; Elute 1294 ml): 82.5% | 7-ACA→CET Conversion rate (%) ([9]; Elute 1432 ml): 83.1% | 7-ACA→CET Conversion rate (%) ([9]; Elute 1534 ml): 82.0% | Conversion rate (%) [6]: 68.2% | 7-ACA→CET Conversion rate (%) ([7]; carrier Agar gel): 69.8% | 7-ACA→CET Conversion rate (%) ([7]; carrier Sepharose 4B): 69.8%

O=C(Cc1cccs1)OCCOCCOCCOCCOCCOCCOCCOCCO [TA-octaester, 2-thienylacetic acid octaethyleneglycol ester]
produced cephalothin [5]: 22 µg/mL | Conversion rate (%) [6]: 76.2%

O=C(Cc1cccs1)OCCOCCOCCOCCOCCO [TA-pentaester]
Conversion rate (%) [6]: 80.6% | 7-ACA→CET Conversion rate (%) ([7]; carrier Sepharose 4B): 69.9%

COCCOCCOCCOCCOC(=O)Cc1cccs1 [TA-tetraester methyl ether]
Conversion rate (%) [6]: 73.3% | 7-ACA→CET Conversion rate (%) ([7]; carrier Agar gel): 86.5% | 7-ACA→CET Conversion rate (%) ([7]; carrier Sepharose 4B): 86.5%

O=C(Cc1cccs1)OCCOCCOCCOCCO [TA-tetraester, 2-thienylacetic acid tetraethyleneglycol ester]
Conversion rate ([8]; 7-ACA 1 mg/ml, TA-ester 114, Sephalose 4B): 78.5% | Conversion rate ([8]; 7-ACA 1 mg/ml, TA-ester 120, Sephalose 4B): 83.7% | Conversion rate ([8]; 7-ACA 2 mg/ml, TA-ester 120, Sephalose 4B): 71.0% | Conversion rate ([8]; 7-ACA 3 mg/ml, TA-ester 120, Sephalose 4B): 56.3% | produced cephalothin [5]: 26 µg/mL | conversion rate (CET produced) [10]: about 30% | conversion rate (CET in eluate) ([11]; TA-tetraester 6 mg/ml): 28.6 to 32.5% | conversion rate (CET in eluate) ([11]; TA-tetraester 30 mg/ml): 31.2 to 34.1% | Conversion rate (%) [6]: 77.1% | 7-ACA→CET Conversion rate (%) In eluate [12, 13]: 63.0% | 7-ACA→CET Conversion rate (%) Isolated Na salt [12, 13]: 53.0% | 7-ACA→CET Conversion rate (%) In eluate [12, 14]: 63.0% | 7-ACA→CET Conversion rate (%) Isolated Na salt [12, 14]: 64.2% | 7-ACA→CET Conversion rate (%) In eluate ([12]; TA-tetraester 25 mg/ml, pH 6.0): 62.8% | 7-ACA→CET Conversion rate (%) Isolated Na salt ([12]; TA-tetraester 25 mg/ml, pH 6.0): 48.5% | 7-ACA→CET Conversion rate (%) In eluate ([12]; TA-tetraester 25 mg/ml, pH 7.0): 72.9% | 7-ACA→CET Conversion rate (%) Isolated Na salt ([12]; TA-tetraester 25 mg/ml, pH 7.0): 67.2% | 7-ACA→CET Conversion rate (%) In eluate ([12]; TA-tetraester 25 mg/ml, pH 8.0): 71.6% | 7-ACA→CET Conversion rate (%) Isolated Na salt ([12]; TA-tetraester 25 mg/ml, pH 8.0): 49.3% | 7-ACA→CET Conversion rate (%) ([7]; carrier Agar gel): 85.0% | 7-ACA→CET Conversion rate (%) ([7]; carrier Sepharose 4B): 87.6%

O=C(Cc1ccccc1)OCCOCCOCCOCCO [drawing 18]
product detected and determined, A. fragerum M-2183-1 [1]: 16.1 | product detected and determined, A. globiformis M-345-2 [2]: 10.1 | product detected and determined, B. Circulans M-1123-5 [3]: 36.2

O=C(Cc1ccccc1)OCCOCCOCCOCCO [drawing 20]
product detected and determined, A. fragerum M-2183-1 [1]: 20.3 | product detected and determined, A. globiformis M-345-2 [2]: 18.0 | product detected and determined, B. Circulans M-1123-5 [3]: Decomposition with penicillinase
